Reference: EP4603105A1, “PHARMACEUTICAL COMPOSITION CONTAINING CYCLIC COMPOUND HAVING SELECTIVE KRAS INHIBITORY EFFECT AGAINST HRAS AND NRAS” (CHUGAI SEIYAKU KABUSHIKI KAISHA, priority 2022, dated 2024)
*1 amine or outer side, *2 acyl side, *3 side chain or, on linkers, in order; H or OH if unused. Where a SMILES comes first, the peptide text is derived from it. Bridges are numbered along the chain shown (N, C = ends). [ ]: non-standard residue; d: D form. The star is where a group is joined. X6 = CC(C)(C)CCN([C@@H](Cc1ccc(C(F)(F)F)cc1)C(=O)[*:2])[*:1]; hPhe(3-Cl-4-CF3) = N[C@@H](CCc1ccc(C(F)(F)F)c(Cl)c1)C(=O)O; NMeGly(cPent) = CN[C@H](C(=O)O)C1CCCC1; NMeD = CN[C@@H](CC(=O)O)C(=O)O; NMeL = CN[C@@H](CC(C)C)C(=O)O; Morpholide = C1CN(*)CCO1; NMeA = CN[C@@H](C)C(=O)O; Ac5c = NC1(C(=O)O)CCCC1; Aze = O=C(O)[C@@H]1CCN1; Sar = CNCC(=O)O

What was measured:
[1] = target: GDP-bound KRAS wild-type protein (Homo sapiens, UniProt P01116); test: Binding to KRAS by surface plasmon resonance (SPR), dissociation constant KD
GDP-bound KRAS wild-type protein, sequence (P01116 1-188 isoform P01116-2): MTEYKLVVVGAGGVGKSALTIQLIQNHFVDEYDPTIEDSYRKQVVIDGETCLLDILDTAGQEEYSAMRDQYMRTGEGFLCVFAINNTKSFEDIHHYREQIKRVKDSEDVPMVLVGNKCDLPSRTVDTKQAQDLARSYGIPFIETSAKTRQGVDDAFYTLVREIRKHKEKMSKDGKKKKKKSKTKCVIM
Summary of the method: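 Each cycle, GDP-bound biotin-Avi RAS was captured (~100–300 RU), compound concentrations were injected low to high for 75 s each at 100 µL/min, then the chip was regenerated. Buffer: HBS pH 7.4, 10 mM MgCl2, 10 µM GDP, 1 mM DTT, 4% DMSO; 30°C. KD from a 1:1 binding model.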

[2] = system: human lung cancer strain NCI-H441; format: cell-based
Summary of the method: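 Readout: […] after the ATP-based reagent. Compound: serial dilutions in dimethyl sulfoxide.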

HRAS wild-type protein = HRAS wild-type protein (Homo sapiens, UniProt P01112); test: Binding to HRAS by surface plasmon resonance (SPR), KD and KD ratio to KRAS
HRAS wild-type protein, sequence (P01112 whole entry): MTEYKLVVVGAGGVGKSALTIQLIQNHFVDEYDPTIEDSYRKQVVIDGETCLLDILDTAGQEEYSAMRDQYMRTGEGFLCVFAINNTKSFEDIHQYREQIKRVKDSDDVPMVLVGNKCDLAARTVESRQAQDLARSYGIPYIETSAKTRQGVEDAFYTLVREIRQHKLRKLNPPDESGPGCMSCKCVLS
Summary of the method: (§1)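 GDP-loaded biotinylated Avi-tag RAS proteins (E. coli-expressed) captured on a Biotin CAPture chip at ~100–300 RU; single-cycle kinetics at 30°C, 100 µL/min, 75 s injections of rising compound concentrations. HBS pH 7.4 running buffer with 1 mM DTT, 10 mM MgCl2, 10 µM GDP, 4% DMSO. KD from 1:1 binding fit.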

[3] = target: GDP-bound NRAS wild-type protein (Homo sapiens, UniProt P01111); test: Binding to NRAS by surface plasmon resonance (SPR), KD and KD ratio to KRAS
GDP-bound NRAS wild-type protein, sequence (P01111 whole entry): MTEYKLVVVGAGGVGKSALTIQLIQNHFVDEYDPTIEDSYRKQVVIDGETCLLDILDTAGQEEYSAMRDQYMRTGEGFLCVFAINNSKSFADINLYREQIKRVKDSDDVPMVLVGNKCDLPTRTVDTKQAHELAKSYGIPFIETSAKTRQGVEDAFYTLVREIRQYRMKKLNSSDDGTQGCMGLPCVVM
Summary of the method: as §1

[4] = ratio of KD for HRAS wild-type protein to KD for KRAS
[5] = ratio of KD for GDP-bound NRAS wild-type protein to KD for KRAS

SMILES | Kd ([1]; Single Cycle Kinetics) [nM] | IC50 [2] [nM] | Kd ([1]; 1:1 binding model) [nM] | Kd ([1]; Single Cycle Kinetics, 1:1 binding model) [nM] | HRAS /KRAS (HRAS wild-type protein; [4]) | NRAS /KRAS [3, 5] | HRAS /KRAS (HRAS wild-type protein; ratio of the KD value with respect to HRAS wild-type protein to the KD value with respect to KRAS) | NRAS /KRAS ([3]; ratio of the KD value with respect to GDP-bound NRAS wild-type protein to the KD value with respect to KRAS)
CCO[C@@H]1C[C@H]2C(=O)NC3(CC(C)(C)C3)C(=O)N(C)[C@@H](C(CC)CC)C(=O)N(C)[C@H](C(=O)N(C)C)CC(=O)N(C)[C@H]3CC/C=C/c4ccc(cc4)C[C@@H](C(=O)N(C)CC(=O)N[C@@H](CCc4ccc(Cl)c(Cl)c4)C(=O)N2C1)N1CC/C=C\C[C@@H](C1=O)N(C)C(=O)CN(C)C(=O)[C@H]([C@@H](C)CC)NC3=O [PP2589] | – | 74.1 | 0.45 | – | A (a compound having 10 or more and less than 20 is denoted as A) | AA (a compound having 20 or more is denoted as AA) | – | –
CC[C@H](C)[C@@H]1NC(=O)[C@H](CC(C)C)N(C)C(=O)C[C@@H](C(=O)N2CCOCC2)N(C)C(=O)[C@H](C2CCCC2)N(C)C(=O)C2(CCC2)NC(=O)[C@@H]2[C@@H](OCC3CCCC3)CCN2C(=O)[C@H](CCc2cc(F)c(C(F)(F)F)c(F)c2)NC(=O)CN(C)C(=O)[C@H](Cc2ccc(C(F)(F)F)cc2)N2CCCCC[C@@H](C2=O)N(C)C(=O)CN(C)C1=O [PP1011] | 3.7 | 314 | – | – | B (a compound having 3 or more and less than 10 is denoted as B) | A (a compound having 10 or more and less than 20 is denoted as A) | – | –
CCOC[C@H]1C(=O)N[C@@H]([C@@H](C)CC)C(=O)N(C2CC2)CC(=O)N(C)[C@H]2C/C=C\CCN(C2=O)[C@@H](CC2CCCCC2)C(=O)N(C)CC(=O)N[C@@H](CCc2ccc(C(F)(F)F)c(OC)c2)C(=O)N2C[C@H](OCC)C[C@H]2C(=O)N(C)C2(CCC2)C(=O)N(C)[C@@H](C2CCCC2)C(=O)N(C)[C@H](C(=O)N(C)C)CC(=O)N1C [PP2342] | – | 70.3 | – | 0.55 | – | – | A (a compound having 10 or more and less than 20 is denoted as A) | A (a compound having 10 or more and less than 20 is denoted as A)

Now those with a lower IC50 [2], led by results:

Kd ([1]; Single Cycle Kinetics) [nM] | IC50 [2] [nM] | Kd ([1]; 1:1 binding model) [nM] | Kd ([1]; Single Cycle Kinetics, 1:1 binding model) [nM] | SMILES | HRAS /KRAS (HRAS wild-type protein; [4]) | NRAS /KRAS [3, 5] | HRAS /KRAS (HRAS wild-type protein; ratio of the KD value with respect to HRAS wild-type protein to the KD value with respect to KRAS) | NRAS /KRAS ([3]; ratio of the KD value with respect to GDP-bound NRAS wild-type protein to the KD value with respect to KRAS)
0.59 | 56.6 | – | – | CC[C@H](C)[C@@H]1NC(=O)[C@H](CC(C)C)N(C)C(=O)C[C@@H](C(=O)N2CCOCC2)N(C)C(=O)[C@H](C2CCCC2)N(C)C(=O)C2(CCCC2)NC(=O)[C@@H]2CCCN2C(=O)[C@H](CCc2cc(F)c(C(F)(F)F)c(F)c2)NC(=O)CN(C)C(=O)[C@H](Cc2ccc(F)cc2)N2CCCCC[C@@H](C2=O)N(C)C(=O)CN(C)C1=O [PP0964] | B (a compound having 3 or more and less than 10 is denoted as B) | B (a compound having 3 or more and less than 10 is denoted as B) | – | –
0.34 | 54 | – | – | CC[C@H](C)[C@@H]1NC(=O)[C@H](CC(C)C)N(C)C(=O)C[C@@H](C(=O)N(C)C)N(C)C(=O)[C@H](C2CCCC2)N(C)C(=O)C2(CCCC2)NC(=O)[C@@H]2CCCN2C(=O)[C@H](CCc2ccc(C(F)(F)F)c(Cl)c2)NC(=O)CN(C)C(=O)[C@H](Cc2ccc(F)cc2)N2CCCCC[C@@H](C2=O)N(C)C(=O)CN(C)C1=O [PP0971] | B (a compound having 3 or more and less than 10 is denoted as B) | B (a compound having 3 or more and less than 10 is denoted as B) | – | –
– | 27.6 | 1.1 | – | CC[C@H](C)[C@@H]1NC(=O)[C@H](COC)N(C)C(=O)C[C@@H](C(=O)N(C)CC)N(C)C(=O)[C@H](C2CCCC2)N(C)C(=O)C2(CC(C)(C)C2)NC(=O)[C@@H]2CC(F)(F)CN2C(=O)[C@H](CCc2ccc(C(F)(F)F)c(Cl)c2)NC(=O)CN(C)C(=O)[C@H](Cc2ccc(C(F)(F)F)cc2)N2CC/C=C\C[C@@H](C2=O)N(C)C(=O)CN(CC)C1=O [PP3135] | A (a compound having 10 or more and less than 20 is denoted as A) | A (a compound having 10 or more and less than 20 is denoted as A) | – | –
– | 7.1 | 0.75 | – | CC[C@H](C)[C@@H]1NC(=O)[C@H](CC(C)C)N(C)C(=O)C[C@@H](C(=O)N2CCOCC2)N(C)C(=O)[C@H](C2CCCC2)N(C)C(=O)C2(CCCC2)NC(=O)[C@@H]2CCCN2C(=O)[C@H](CCc2ccc(C(F)(F)F)c(Cl)c2)NC(=O)CN(C)C(=O)[C@H](Cc2ccc(C(F)(F)F)cc2)N(CCC(C)(C)C)C(=O)[C@@H]2CCN2C(=O)[C@H](C)N(C)C1=O [PP0113] ([NMeL]I[NMeA][Aze][X6][Sar][hPhe(3-Cl-4-CF3)]P[Ac5c][NMeGly(cPent)][NMeD]-Morpholide; lactam N-11) | B (a compound having 3 or more and less than 10 is denoted as B) | C (A compound having a KD ratio of 0.1 or more and less than 3 is denoted as C) | – | –
